According to PMC8648042, “IMB-XMA0038, a new inhibitor targeting aspartate-semialdehyde dehydrogenase of Mycobacterium tuberculosis” (Emerging Microbes & Infections, 2021):

Biological target: T1, Aspartate-semialdehyde dehydrogenase (MtASADH) (Mycobacterium tuberculosis, UniProt P9WNX5)
T1 construct: gene asd
Experiment: SPR with MtASADH immobilized on CM5 chip; also IC50 […] in LysC-coupled NADPH enzyme assay
Assay type: binding

T1 sequence (P9WNX5 whole entry, looked up): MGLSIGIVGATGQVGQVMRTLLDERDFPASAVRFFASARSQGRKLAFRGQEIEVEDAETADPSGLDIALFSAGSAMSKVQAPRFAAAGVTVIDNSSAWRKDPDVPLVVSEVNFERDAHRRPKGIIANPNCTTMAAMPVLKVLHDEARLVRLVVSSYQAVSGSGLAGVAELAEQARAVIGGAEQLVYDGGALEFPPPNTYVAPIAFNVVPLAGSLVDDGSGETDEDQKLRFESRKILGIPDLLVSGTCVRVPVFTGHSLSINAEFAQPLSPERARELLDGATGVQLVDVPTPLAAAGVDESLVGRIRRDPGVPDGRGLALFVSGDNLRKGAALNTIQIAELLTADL

With `O=C(Nc1nnc(C2CCCO2)o1)c1ccc([N+](=O)[O-])o1` (stereo not shown) [IMB-XMA0038, 5-nitro-N-(5-(tetrahydrofuran-2-yl)-1,3,4-oxadiazol-2-yl)furan-2-carboxamide] the Kd was 365 µM.
